Measurements as given in US4757076A, “Method of inhibiting aromatase” (Eli Lilly and Company, priority 1984, dated 1988).
Counter-ions that a name gives are not always drawn.

system: DMBA-induced mammary tumors; experiment: DMBA-Induced Mammary Tumor Inhibition; type: in vivo, female Sprague-Dawley rats; conditions: 300 ppm in diet (approx. 30 mg/kg/day); after 5 weeks; control 1140
Protocol: Mammary tumors were produced in female Sprague-Dawley rats which were 50-60 days old by the gavage administration of 20 mg of 7,12-dimethylbenz[a]anthracene (DMBA). About six weeks after DMBA administration, the mammary glands were palpated at weekly intervals for the appearance of tumors. Whenever one or more tumors appeared and were measurable in an animal, that animal was selected for experimentation. […] Each control and test group contained 8 animals. The test compound was administered mixed into the food at a concentration of 300 ppm (corresponding to an appropriate daily dose of 30 mg/kg). The experiment included a group of control rats having tumors and were given food without the compound admixed. […] The area of each tumor was calculated by multiplying the shortest and longest diameters of the tumor. The treatment and measurement of animals continued for 5 weeks at which time the final areas of the tumors were determined.

Row | Structure (SMILES) | Mean Tumor Area, Finish [mm^2]
1 | OC(c1ccc(Cl)cc1)(c1ccc(Cl)cc1)c1cccnc1 [α,α-bis(4-chlorophenyl)-3-pyridinemethanol] | 433

same assay, conditions: 300 ppm in diet (approx. 30 mg/kg/day); start of 5-week test; control 73.9

Row | Structure (SMILES) | Mean Tumor Area, Start [mm^2]
2 | OC(c1ccc(Cl)cc1)(c1ccc(Cl)cc1)c1cccnc1 [α,α-bis(4-chlorophenyl)-3-pyridinemethanol] | 108.8

system: estrogen synthesis (aromatization); experiment: Estrogen Synthesis Inhibition in Rats (uterine weight and ovarian steroid concentration); type: in vivo, immature female Wistar rats; conditions: 30 ppm in feed (approx. 3 mg/kg/day), 7 days, 4 animals, testosterone propionate-treated; significantly different from testosterone-treated control (163.88), p < 0.05
Protocol: Test compounds were administered for seven days as a component of the diet. Control animals received diet without the test compound. Beginning on the fourth day of the test, all animals treated with the test compound and one half of the control animals were given a subcutaneous injection of 1.0 mg of testosterone propionate in corn oil. The remaining control animals received only an equivalent volume of corn oil.
After two hours, the animals were killed by decapitation. Uteri were isolated, trimmed of extraneous connective tissue, and weighed.
The ovarian steroids were extracted with 1.5 ml of 9:1 (v/v) toluene/ethanol to which had been added 25 to 100 mcg. each of unlabelled estradiol, estriol, and estrone, and approximately 1000 dpm of [^14 C]-estradiol. The samples were vortexed, centrifuged at 500×g for 10 minutes, and the organic phase was transferred to a conical vial. Two additional extractions were performed on the residue in the same way. The pooled organic extracts were evaporated for subsequent thin-layer chromatography.
Ovarian proteins were precipitated by the addition of 5.0 ml of ethanol to the remaining aqueous phase. After an overnight incubation at 4° C., the samples were centrifuged at 1500×g for 10 minutes. The supernatant was discarded, and the pellet was dissolved in 0.3 N potassium hydroxide.
The organic residue from each above extraction was redissolved in 9:1 (v/v) dichloromethane/methanol. The solution of each sample was applied to separate silica gel thin layer chromatography plates which contained a fluorescent indicator. The plates were developed in the first dimension with 160:38:1.5:0.5 (v/v/v/v) dichloromethane/ethyl acetate/methanol/acetic acid to within 3 cm of the top of the plate. After air-drying, the plate was developed in the second dimension with 180:19:1 (v/v/v) dichloromethane/methanol/ammonium hydroxide. The plate was air-dried and viewed under 254 nm UV light.
The visible spots were marked, and the plates were sprayed with primulin (0.001% in 4:1 v/v acetone/water) according to the method of Wright, J. Chromatography, 59, 220 (1971) which allowed for the identification of additional steroids under 365 nm UV light. The spots were scraped from the plate using a glass wool plugged Pasteur pipet attached to a vacuum line. The steroids were eluted directly into scintillation vials by the addition of 0.2 ml of dichloromethane followed by two washes each of 2.0 ml of methanol. The organic solvent was evaporated and 10.0 ml of scintillation fluid (Beckman Ready Solv-NA) was added to the vials. Samples were analyzed by liquid scintillation spectrometry. Corrections were made based on the recoveries of the [^14 C]-steroid. Steroid concentrations are expressed as femtomoles per milligram protein.

Row | Structure (SMILES) | Mean Uterine Weight [mg]
3 | OC(c1ccc(Cl)cc1)(c1ccc(Cl)cc1)c1cccnc1 [α,α-bis(4-chlorophenyl)-3-pyridinemethanol] | 127.25

same assay, conditions: 300 ppm in feed (approx. 30 mg/kg/day), 7 days, 5 animals, testosterone propionate-treated; significantly different from testosterone-treated control (163.88), p < 0.05

Row | Structure (SMILES) | Mean Uterine Weight [mg]
4 | OC(c1ccc(Cl)cc1)(c1ccc(Cl)cc1)c1cccnc1 [α,α-bis(4-chlorophenyl)-3-pyridinemethanol] | 87.80

same assay, conditions: ovary; 30 ppm in feed (approx. 3 mg/kg/day), 7 days; testosterone-treated control 0.68

Row | Structure (SMILES) | Mean Steroid Concentration, estriol
5 | OC(c1ccc(Cl)cc1)(c1ccc(Cl)cc1)c1cccnc1 [α,α-bis(4-chlorophenyl)-3-pyridinemethanol] | 0.70 femtomoles per milligram of protein

same assay, conditions: ovary; 30 ppm in feed (approx. 3 mg/kg/day), 7 days; testosterone-treated control 1.29

Row | Structure (SMILES) | Mean Steroid Concentration, estradiol
6 | OC(c1ccc(Cl)cc1)(c1ccc(Cl)cc1)c1cccnc1 [α,α-bis(4-chlorophenyl)-3-pyridinemethanol] | 1.04 femtomoles per milligram of protein

same assay, conditions: ovary; 300 ppm in feed (approx. 30 mg/kg/day), 7 days; testosterone-treated control 0.68

Row | Structure (SMILES) | Mean Steroid Concentration, estriol
7 | OC(c1ccc(Cl)cc1)(c1ccc(Cl)cc1)c1cccnc1 [α,α-bis(4-chlorophenyl)-3-pyridinemethanol] | 0.39 femtomoles per milligram of protein

same assay, conditions: ovary; 300 ppm in feed (approx. 30 mg/kg/day), 7 days; testosterone-treated control 1.29; p < 0.05

Row | Structure (SMILES) | Mean Steroid Concentration, estradiol
8 | OC(c1ccc(Cl)cc1)(c1ccc(Cl)cc1)c1cccnc1 [α,α-bis(4-chlorophenyl)-3-pyridinemethanol] | 0.36 femtomoles per milligram of protein

molecular target: T1, aromatase (Rattus norvegicus, UniProt P22443); experiment: Aromatase inhibition in the rat ovarian microsome assay (modified isolated rat ovarian microsome method of Brodie et al.); type: biochemical; conditions: rat ovarian microsomes; substrate (androstenedione) concentration 0.1 μM
T1 construct: ovarian microsomes are obtained from rats treated with pregnant mares serum gonadotropin; from tissue; host or cells: ovarian microsomes of rats treated with pregnant mares serum gonadotropin
T1 sequence (P22443 1-508): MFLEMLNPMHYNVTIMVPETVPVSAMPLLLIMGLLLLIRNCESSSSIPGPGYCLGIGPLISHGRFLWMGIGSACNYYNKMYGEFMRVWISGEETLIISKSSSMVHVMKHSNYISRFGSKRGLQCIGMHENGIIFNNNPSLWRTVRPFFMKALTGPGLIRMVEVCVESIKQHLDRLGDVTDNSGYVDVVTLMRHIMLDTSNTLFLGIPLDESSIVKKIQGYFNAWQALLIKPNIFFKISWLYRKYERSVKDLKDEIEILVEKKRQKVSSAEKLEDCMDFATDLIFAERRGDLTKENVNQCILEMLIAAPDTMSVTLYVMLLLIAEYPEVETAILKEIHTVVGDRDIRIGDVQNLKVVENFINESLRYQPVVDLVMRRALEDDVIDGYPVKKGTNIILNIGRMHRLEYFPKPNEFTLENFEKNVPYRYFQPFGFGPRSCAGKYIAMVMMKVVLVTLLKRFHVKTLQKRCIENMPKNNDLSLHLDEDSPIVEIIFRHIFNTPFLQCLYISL
Protocol: In this test system, ovarian microsomes are obtained from rats treated with pregnant mares serum gonadotropin. Test compounds are added to reaction vials containing 0.1 μM 4-androstene-3,17-dione, 100,000 dpm 1,2[^3 H]-androstenedione, the microsomes and a NADPH generating system. The concentrations of the inhibitors tested ranged between 0.005 and 10 μM.

Row | Structure (SMILES) | EC50 [nM]
9 | OC(Cc1ccc(Cl)cc1Cl)(Cc1ccc(Cl)cc1Cl)c1cccnc1 [α,α-bis(2,4-dichlorobenzyl)-3-pyridinemethanol hydrochloride] | 1850
10 | Clc1ccc(Cc2ccncc2)cc1 [4-(4-chlorobenzyl)pyridine] | 550
11 | OC(Cc1ccc(Cl)cc1)(Cc1ccc(Cl)cc1)c1cccnc1 [α,α-bis(4-chlorobenzyl)-3-pyridinemethanol] | > 5000
12 | CCCSC(c1ccc(Cl)cc1)(c1ccc(Cl)cc1)c1cccnc1 [3-[α-(4-chlorophenyl)-α-(n-propylthio)-4-chlorobenzyl]pyridine] | 1750
13 | OC(Cc1ccc(Cl)cc1)(c1cccnc1)c1cccc(Cl)c1 (stereo not drawn) [α-(4-chlorobenzyl)-α-(3-chlorophenyl)-3-pyridinemethanol] | 3200
14 | OC(Cc1ccc(Cl)cc1)(Cc1ccc(Cl)cc1Cl)c1cccnc1 (stereo not drawn) [α-(4-chlorobenzyl)-α-(2,4-dichlorobenzyl)-3-pyridinemethanol] | 2400
15 | OC(c1ccc(Cl)cc1)(c1cccnc1)c1ccc2c(c1)OCO2 (stereo not drawn) [α-(4-chlorophenyl)-α-(3,4-methylenedioxyphenyl)-3-pyridinemethanol] | 500
16 | OC(Cc1ccc(Cl)cc1)(c1ccc(Cl)cc1)c1cccnc1 (stereo not drawn) [α-(4-chlorobenzyl)-α-(4-chlorophenyl)-3-pyridinemethanol] | 2900
17 | Cc1ccc(C(O)(c2ccccc2)c2cccnc2)cc1 (stereo not drawn) [α-(4-methylphenyl)-α-phenyl-3-pyridinemethanol] | 2400
18 | OC(Cc1ccccc1)(Cc1ccccc1)c1cccnc1 [α,α-dibenzyl-3-pyridinemethanol] | 2850
19 | OC(c1cccnc1)(c1ccc(Cl)cc1Cl)c1ccc(Cl)cc1Cl [α,α-bis(2,4-dichlorophenyl)-3-pyridinemethanol hydrochloride] | 4000
20 | O=[N+]([O-])c1ccc(Cc2ccncc2)cc1 [4-(4-nitrobenzyl)pyridine] | 980
21 | CN(C)c1ccc(C(O)(c2ccncc2)c2ccc(N(C)C)cc2)cc1 [α,α-bis[4-(dimethylamino)phenyl]-4-pyridinemethanol] | 3400
22 | OC(c1ccccc1)(c1cccnc1)c1ccc(F)cc1F (stereo not drawn) [α-(2,4-difluorophenyl)-α-phenyl-3-pyridinemethanol] | 2050
23 | OC(c1ccc(Cl)cc1)c1cccnc1 (stereo not drawn) [α-(3-pyridyl)-4-chlorobenzyl alcohol] | 2400
24 | OC(Cc1ccc(Cl)cc1Cl)(c1ccc(Cl)cc1)c1cccnc1 (stereo not drawn) [α-(2,4-dichlorobenzyl)-α-(4-chlorophenyl)-3-pyridinemethanol hydrochloride] | > 5000
25 | OC(Cc1ccc(Cl)cc1Cl)(c1ccc(Cl)cc1)c1cccnc1 (stereo not drawn) [α-(2,4-dichlorobenzyl)-α-(4-chlorophenyl)-3-pyridinemethanol] | 3200
26 | CCCN(CCC)C(c1ccc(Cl)cc1)c1cccnc1 (stereo not drawn) [α-(4-chlorophenyl)-N,N--di(n-propyl)-3-pyridylmethylamine] | 150
27 | Cc1cncc(C(O)(c2ccccc2)c2ccc(Cl)cc2)c1 (stereo not drawn) [α-(4-chlorophenyl)-5-methyl-α-phenyl-3-pyridinemethanol] | 4100
28 | OC(c1cccnc1)(c1cccc(Br)c1)c1cccc(Br)c1 [α,α-bis(3-bromophenyl)-3-pyridinemethanol] | 2200
29 | OC(Cc1ccc(Cl)cc1)(c1ccncc1)c1ccc(Cl)cc1 (stereo not shown) [1,2-bis(4-chlorophenyl)-1-(4-pyridyl)ethanol] | 185
30 | OC(Cc1ccc(Cl)c(Cl)c1)(c1ccc(Cl)cc1)c1cccnc1 (stereo not drawn) [α-(3,4-dichlorobenzyl)-α-(4-chlorophenyl)-3-pyridinemethanol] | 3150
31 | Clc1ccccc1C(c1ccncc1)c1ccccc1Cl [4-bis(2-chlorophenyl)methylpyridine] | 490
